Measured values taken from patent EP1143981B1, “USE OF N-GLYCOLNEURAMINIC ACID AND ITS DERIVATIVES FOR THE MANUFACTURE OF A MEDICAMENT FOR THE TREATMENT OF HIV INFECTIONS” (Glukor, Inc., priority 1998, dated 2000).

Columns and labels:
HIV-1IIIB = experiment: PBMC cell-based anti-HIV assay; conditions: PBMCs; laboratory strain
Method: For the standard PBMC assay, PHA-P stimulated cells from at least two normal donors were pooled, diluted in fresh medium to a final concentration of 1 x 10^6 cells/mL, and plated in the interior wells of a 96 well round bottom microplate at 50 µL/well (5 x 10^4 cells/well). Test drug dilutions were prepared at a 2X concentration in microfuge tubes and 100 µL of each concentration was placed in appropriate wells in a standard format. A predetermined dilution of virus stock was placed in each test well (50 µL, final MOI ≅ 0.1). Wells with cells and virus alone were used for virus control. Separate plates were prepared identically without virus for drug cytotoxicity studies using an XTT assay system. The PBMC cultures were maintained for seven days following infection, at which time cell-free supernatant samples were collected and assayed for reverse transcriptase activity as described below.
Reverse Transcriptase Activity Assay: A microtiter based reverse transcriptase (RT) reaction was utilized as described by Buckheit et al., (1991), AIDS Research and Human Retroviruses, 7:295-302. Tritiated thymidine triphosphate (^3H-TTP) was suspended in distilled H2O at 5 Ci/mL. […] Opti-Fluor-O (Packard) was added to each sample and incorporated radioactivity was quantified utilizing a Wallac 1450 MicroBeta Plus liquid scintillation counter. […]

X4 strain LAI/IIIB = experiment: RT activity in infected PBMCs over 20 days post-infection; assay type: cell-based
Method: Reverse Transcriptase Activity Assay: A microtiter based reverse transcriptase (RT) reaction was utilized as described by Buckheit et al., (1991), AIDS Research and Human Retroviruses, 7:295-302. Tritiated thymidine triphosphate (^3H-TTP) was suspended in distilled H2O at 5 Ci/mL. Poly rA and oligo dT were prepared as a stock solution which was kept at -20°C. RT reaction buffer was prepared fresh on a daily basis and contained 125 µL 1M EGTA, 125 µL dH2O, 110 µL 10% SDS, 50 µL 1M Tris (pH 7.4), 50 µL 1M DTT, and 40 µL 1M MgCl2. These three solutions were mixed together in a ratio of 2 parts ^3H-TTP, 1 part poly rA:oligo dT, and 1 part reaction buffer. Ten microliters of this reaction mixture were placed in a round bottom microtiter plate and 15 µL of virus containing supernatant were added and mixed. The plate was incubated at 37°C in a water bath with a solid support to prevent submersion of the plate and incubated for 60 minutes. After the incubation period, the reaction volume was spotted onto pieces of DE81 paper, washed 5 times for 5 minutes each in a 5% sodium phosphate buffer, 2 times for 1 minute each in distilled water, 2 times for 1 minute each in 70% ethanol, and then dried. Opti-Fluor-O (Packard) was added to each sample and incorporated radioactivity was quantified utilizing a Wallac 1450 MicroBeta Plus liquid scintillation counter. Plates were screened with tetrazolium dye staining as described above.
PBMCs were treated with dilutions of LUKOR of 1:4, 1:20, 1:100, 1:500, or 1:2500, or concentrations ofN-glycolylneuraminic acid or N-acetylneuraminic acid of 0.4, 1.2, 3.6, 11, or 33µg/ml. No carbohydrates were added to the control sample. RT activity was determined at 3, 6, 9,13, 17, and 20 days post-infection (PI) with X4 strain LAI/IIIB.

PBMCs = assay type: cell-based; conditions: human
Method: Fresh human PBMCs were isolated from voluntary Red Cross donors, seronegative for HIV and HBV. Leukophoresed blood was diluted 1:1 with Dulbecco's PBS, layered over 14 mL of Ficoll-Hypaque density gradient in a 50mL centrifuge and then centrifuged for 30 minutes at 600 x g. Banded PBMCs were gently aspirated from the resulting interface and subsequently washed twice with PBS by low speed centrifugation. […] PBMCs were maintained in this medium at a concentration of 1-2 x 10^6 cells/mL with bi-weekly medium changes until used in the assay. […]
Tetrazolium dye staining of screening plates: After 6 days of incubation (37°C with 5% CO2), the test plates were analyzed by staining with the tetrazolium dye XTT (2,3-b (2-methoxy-4-nitro-5-sulfophenyl)-2H-tetrazolium -5-carboxanilide). XTT-tetrazolium is metabolized by mitochondrial enzymes of metabolically active cells to a soluble formazan product, allowing the rapid quantitative analysis of the inhibition of HIV-induced cell killing by anti-HIV compounds. […] Plates were sealed with adhesive plate sealers and inverted several times to mix the soluble formazan product and the plate was read spectrophotometrically at 450nm with a Molecular Devices Vmax plate reader. Indices such as %CPE Reduction (cytopathic effects), %Cell Viability, IC25, IC50, IC95, TC25, TC50, and TC95 and other indices were calculated. […]

`O=C(CO)N[C@H]1[C@H]([C@H](O)[C@H](O)CO)OC(O)(C(=O)O)C[C@@H]1O` (stereo partly drawn) [N-glycolylneuraminic acid] was tested, and the anti-HIV activity (HIV-1IIIB) was “inactive”, the “RT Activity” value (X4 strain LAI/IIIB; 0.4 µg/ml, 3 days PI) was 53 and the “RT Activity” value (X4 strain LAI/IIIB; 0.4 µg/ml, 6 days PI) was 113. The “RT Activity” value (X4 strain LAI/IIIB; 0.4 µg/ml, 9 days PI) was 1342, the “RT Activity” value (X4 strain LAI/IIIB; 0.4 µg/ml, 13 days PI) was 1371 and the “RT Activity” value (X4 strain LAI/IIIB; 0.4 µg/ml, 17 days PI) was 1509. For the same compound, the “RT Activity” value (X4 strain LAI/IIIB; 0.4 µg/ml, 20 days PI) was 1250, the “RT Activity” value (X4 strain LAI/IIIB; 3.6 µg/ml, 3 days PI) was 45 and the “RT Activity” value (X4 strain LAI/IIIB; 3.6 µg/ml, 6 days PI) was 44. For the same compound, the “RT Activity” value (X4 strain LAI/IIIB; 3.6 µg/ml, 9 days PI) was 139, the “RT Activity” value (X4 strain LAI/IIIB; 3.6 µg/ml, 13 days PI) was 428 and the “RT Activity” value (X4 strain LAI/IIIB; 3.6 µg/ml, 17 days PI) was 1262. For the same compound, the “RT Activity” value (X4 strain LAI/IIIB; 3.6 µg/ml, 20 days PI) was 616, the “RT Activity” value (X4 strain LAI/IIIB; 11 µg/ml, 3 days PI) was 40 and the “RT Activity” value (X4 strain LAI/IIIB; 11 µg/ml, 6 days PI) was 75. The “RT Activity” value (X4 strain LAI/IIIB; 11 µg/ml, 9 days PI) was 956, the “RT Activity” value (X4 strain LAI/IIIB; 11 µg/ml, 13 days PI) was 2544 and the “RT Activity” value (X4 strain LAI/IIIB; 11 µg/ml, 17 days PI) was 3261. The “RT Activity” value (X4 strain LAI/IIIB; 11 µg/ml, 20 days PI) was 1411, the “RT Activity” value (X4 strain LAI/IIIB; 33 µg/ml, 3 days PI) was 32 and the “RT Activity” value (X4 strain LAI/IIIB; 33 µg/ml, 6 days PI) was 75. The “RT Activity” value (X4 strain LAI/IIIB; 33 µg/ml, 9 days PI) was 567, the “RT Activity” value (X4 strain LAI/IIIB; 33 µg/ml, 13 days PI) was 1103 and the “RT Activity” value (X4 strain LAI/IIIB; 33 µg/ml, 17 days PI) was 2356. For the same compound, the “RT Activity” value (X4 strain LAI/IIIB; 33 µg/ml, 20 days PI) was 2917, the “RT activity in treated cells (summary in words)” value (X4 strain LAI/IIIB; all dilutions/concentrations, 3-20 days PI) was “RT activity was decreased” and the CC50 (PBMCs) was over 1000 µM.
